The subject of assay [1] is platelet aggregation. In words: in vitro inhibitory activity of platelet aggregation (ADP). Format: cell-based, rabbit (Japanese domestic white male). The note with it: Oryctolagus cuniculus, rabbit PRP, 10 μM ADP, 37° C., read-out: IC50 (minimum concentration which inhibited more than 50% of platelet aggregation). The method, then: The in vitro platelet aggregation imhibiting activity of the compounds of the invention were examined by using rabbits. Blood was withdrawn from the ear vein of Japanese domestic white male rabbits weighing 2.5 to 3.5 kg. A mixture of a 3.8% trisodium citrate solution and the blood in a ratio of 1:9 was centrifuged at a speed of 1000 rpm for 10 minutes. The upper layer was separated as platelet-rich plasma (PRP). The lower layer was further centrifuged at a speed of 2800 rpm for 10 minutes. The upper layer was separated as platelet-poor plasma (PPP). The number of platelets was adjusted to 6×10^5 /μl to 7×10^5 /μl by diluting the PRP with PPP. 25 microliters of the test compounds prepared as shown below was added in an amount of 25 to 250 microliters of PRP after the adjustment, and the mixture was pre-incubated at 37° C. for 2 minutes, and then 10 μM (final) of ADP was added. By using an aggregometer, changes in transmission were recorded.
The drug was dissolved in ethanol to a concentration of 10 mg/ml, and successively diluted with phosphate buffer (pH 7.4) prior to use.
The rate of inhibition of platelet aggregation was determined from the following equation. [formula] To : the transmittance of the system containing the phosphate buffer, T: the transmittance of the sytem to which the test drug was added.
The minimum concentration of the drug which inhibited more than 50% of platelet aggregation was shown as an IC50 value.

Assay [2] has as its system blood pressure and heart beat rate of rats. In words: hypotensive activity and heart beat rate, intravenous injection in anesthetized rats. Format: in vivo, male wister rats. The note with it: Rattus norvegicus, i.v.; for ED (10% increase of heart rate): read-out: H-ED10 (dosage causing a 10% increase of the heart rate); for ED (20% lowering of blood pressure): read-out: P-ED20 (dosage causing a 20% lowering of the mean blood pressure). The method, then:
(1) The actions of the thiaprostaglandin E1 derivatives of the invention on the blood pressure and heart beat rate of rats were examined by intravenous injection under anesthesia. Male wister rats weighing about 250 g were used. Urethane (500 mg/kg) and α-chloralose (100 mg/kg) were intraperitoneally administered to the rats. The rats were anesthetized and fixed in place. Each of the test compounds was dissolved in a small amount of ethanol and diluted with physiological saline to adjust the final ethanol concentration to not more than 5%. The solution was intravenously injected into the rats through a catheter inserted into the femoral vein. The blood pressure of the rats was measured by a pressure transducer through a catheter inserted into the carotid artery of the rats. The heart beat rate was determined from the blood pressure pulse. The action of the test compound of the blood pressure was expressed as the dosage (p-ED20, μg/kg) of the test compound which caused a 20% lowering of the mean blood pressure before administration of the compound. The action of the test compound on the heart rate was expressed as the dosage (H-ED10, μg/kg) of the test compound which caused a 10% increase of the heart rate from the heart beat rate before administration of the test compound.

The subject of assay [3] is platelet aggregation. Kind of assay: extra vivo inhibitory activity of platelet aggregation after oral administration. Format: in vivo, guinea pigs (Hartley strain). The note with it: Cavia porcellus; for inhibition at 3 mg/kg: 3 mg/kg p.o.; for inhibition at 10 mg/kg: 10 mg/kg p.o. The method, then:
The extra vivo platelet aggregation inhibitory activity of the 7-thiaprostaglandin E1 derivatives of the invention were measured by using guinea pigs. A test drug prepared as a 30% ethanol solution of each of the compounds of the invention in ethanol diluted with physiological saline and as a control 30% ethanol solution were orally adminstered in a dose of 1 ml/kg to Hartleystrain guinea pigs having a body weight of 350 to 450 g which had been fasted for 17 hours. 1 hour or 4 hours after the administration of the compound, blood was drawn off by the cardiac puncture using trisodium citrate so that the ratio of the blood to 3.8% trisodium citrate was 9:1. The blood was centrifuged at a speed of 700 rpm for 10 minutes. The upper layer was separated as plateletrich plasma (PRP). The lower layer was further centrifuged at a speed of 2800 rpm for 10 minutes. The upper layer was separated as platelet poor plasma (PPP). 250 microliters of the resulting PRP was taken into an aggregometer cuvette, and incubated at 37° C. for 2 minutes. Then, 25 microliters of a […] ADP disodium solution adjusted by dissolving with 0.1M tris-HCl buffer (ph 8.0) was added. The aggregation curve was recorded for 3 minutes. The maximum degree of aggregation of platelets within this time period was read, and the rate of inhibitor of platelet aggregation was calculated from the following equation. [formula] TC : the transmittance of a control group (to which only the 30% ethanol solution was administered),
TD : the transmittance of a drug administered group.

≈ marks a conversion by molar mass, not a printed value.

In the case of `CCCC(C)CC(O)/C=C/[C@H]1CCC(=O)[C@@H]1SCCCCCC(=O)OC` (relative stereo) [reference compound], in the assay with platelet aggregation [1], the IC50 was greater than 100 µg/mL.

For the compound `CCCCC[C@H](O)/C=C/[C@H]1[C@H](SCCCCCC(=O)OC)C(=O)C[C@@H]1O` [15-epi-ent of Compound 124], the IC50 with platelet aggregation [1] came out at 8.9 µg/mL (≈ 23 µM).

`COC(=O)CCCCCS[C@@H]1C(=O)C[C@H](O)[C@H]1/C=C/[C@@H](O)C1CCCCC1` [15-epi-ent of Compound 138]: in the assay on platelet aggregation [1], the IC50 came to 0.11 µg/mL (≈ 0.276 µM). As to `O=C(O)CCCCCS[C@H]1C(=O)C[C@@H](O)[C@@H]1/C=C/[C@@H](O)C1CCCCC1` [Compound 111, 16,17,18,19,20-pentanor-15-cyclohexyl-7-thiaprostaglandin E1], the IC50 in the assay with platelet aggregation [1] stood at 0.004 µg/mL (≈ 0.0104 µM). For the same compound, in assay [2], the ED (10% increase of heart rate) is 2.5 µg/kg and the ED (20% lowering of blood pressure) is 1.17 µg/kg. As for `CCCCC[C@H](O)/C=C/[C@H]1[C@H](O)CC(=O)[C@@H]1SCCCCCC(=O)OC` [Compound 124, 7-Thiaprostaglandin E1 methyl ester], the IC50 in the assay on platelet aggregation [1] was found to be 0.47 µg/mL (≈ 1.22 µM). A word on the inhibition: it is how much of the control response was suppressed. Lower therefore signals little suppression. As for `CCCC[C@H](C)C[C@H](O)/C=C/[C@H]1[C@H](O)CC(=O)[C@@H]1SCCCCCC(=O)OC` [Compound 131, 17(S),20-dimethyl-7-thiaprostaglandin E1 methyl ester], the IC50 in the assay with platelet aggregation [1] turned out to be 0.0006 µg/mL (≈ 0.00145 µM). In assay [2], the ED (10% increase of heart rate) was determined as 0.83 µg/kg and the ED (20% lowering of blood pressure) stood at 2.3 µg/kg. In addition, the inhibition at 3 mg/kg in the assay on platelet aggregation [3] (1 hr) stood at 100%. In the case of `CCCC[C@@H](C)C[C@H](O)/C=C/[C@H]1[C@H](O)CC(=O)[C@@H]1SCCCCCC(=O)OC` [Compound 134, 17(R),20-dimethyl-7-thiaprostaglandin E1 methyl ester], the IC50 with platelet aggregation [1] amounted to 0.0018 µg/mL (≈ 0.00434 µM). Same read-out and setting: as for `CCCCCCCCCCOC(=O)CCCCCS[C@H]1C(=O)C[C@@H](O)[C@@H]1/C=C/[C@@H](O)C1CCCCC1` [Compound 143, 16,17,18,19,20-pentanor-15-cyclohexyl-7-thiaprostaglandin E1 decyl ester], the figure is 0.058 µg/mL (≈ 0.111 µM). As for `O=C(CCCCCS[C@H]1C(=O)C[C@@H](O)[C@@H]1/C=C/[C@@H](O)C1CCCCC1)Oc1ccccc1` [Compound 144, 16,17,18,19,20-pentanor-15-cyclohexyl-7-thiaprostaglandin E1 phenyl ester], the IC50 in the assay with platelet aggregation [1] came out at 0.015 µg/mL (≈ 0.0326 µM). In assay [2], the ED (10% increase of heart rate) is 2.6 µg/kg and the ED (20% lowering of blood pressure) is 3.4 µg/kg. In the assay with platelet aggregation [3] (1 hr), this compound had an inhibition at 3 mg/kg of 37.4% and an inhibition at 10 mg/kg of 85.4%. In the assay on platelet aggregation [3] (4 hr), this compound had an inhibition at 3 mg/kg of 3% and an inhibition at 10 mg/kg of 79.2%. Turning to `O=C(CCCCCS[C@H]1C(=O)C[C@@H](O)[C@@H]1/C=C/[C@@H](O)C1CCCCC1)OCc1ccccc1` [Compound 147, 16,17,18,19,20-pentanor-15-cyclohexyl-7-thiaprostaglandin E1 benzyl ester], the IC50 in the assay with platelet aggregation [1] came out at 0.054 µg/mL (≈ 0.114 µM). Also, the inhibition at 10 mg/kg in the assay on platelet aggregation [3] (1 hr) was found to be 54%; with platelet aggregation [3] (4 hr) it was 28.9%.

For `COC(=O)C(C)CCCCS[C@H]1C(=O)C[C@@H](O)[C@@H]1/C=C/[C@@H](O)C1CCCCC1` (stereo partly shown) [Compound 150, 16,17,18,19,20-pentanor-15-cyclohexyl-2-methyl-7-thiaprostaglandin E1 methyl ester], in the assay on platelet aggregation [1], the IC50 is 0.52 µg/mL (≈ 1.26 µM). Moreover, the inhibition at 10 mg/kg in the assay with platelet aggregation [3] (1 hr) came out at 20.8%; in the assay on platelet aggregation [3] (4 hr) it was 0.7%. On to `COC(=O)/C=C/CCCS[C@H]1C(=O)C[C@@H](O)[C@@H]1/C=C/[C@@H](O)C1CCCCC1` [Compound 156, 16,17,18,19,20-pentanor-15-cyclohexyl-2,3-dehydro-7-thiaprostaglandin E1 methyl ester], for which the IC50 in the assay with platelet aggregation [1] is 0.091 µg/mL (≈ 0.229 µM). Still for that read-out and setting: as for `CCCC[C@H](C)C[C@H](O)/C=C/[C@H]1[C@H](O)CC(=O)[C@@H]1SCCC/C=C/C(=O)OC` [Compound 160, 17(S),20-dimethyl-2,3-dehydro-7-thiaprostaglandin E1 methyl ester], the figure is 0.64 µg/mL (≈ 1.55 µM). Same read-out and setting: as for `CCCCC[C@H](O)/C=C/[C@H]1[C@H](O)CC(=O)[C@@H]1CSCCCCC(=O)O` [Compound 300, 6-thiaprostaglandin E1], the figure is 0.45 µg/mL (≈ 1.21 µM).

Take `O=C(O)CCCCSC[C@H]1C(=O)C[C@@H](O)[C@@H]1/C=C/[C@@H](O)C1CCCCC1` [Compound 303, 16,17,18,19,20-pentanor-15-cyclohexyl-6-thiaprostaglandin E1]: in the assay on platelet aggregation [1], the IC50 worked out at 0.27 µg/mL (≈ 0.702 µM). Still for that read-out and setting: as for `CCCCC[C@H](O)/C=C/[C@H]1[C@H](O)CC(=O)[C@@H]1CSCCCCC(=O)OC` [Compound 305, 6-thiaprostaglandin E1 methyl ester], the figure is 6 µg/mL (≈ 15.5 µM). The same measure, in the same setting: the value for `COC(=O)CCCCSC[C@H]1C(=O)C[C@@H](O)[C@@H]1/C=C/[C@@H](O)C1CCCCC1` [Compound 308, 16,17,18,19,20-pentanor-15-cyclohexyl-6-thiaprostaglandin E1 methyl ester] was 0.32 µg/mL (≈ 0.803 µM). In the case of `CCCCC[C@H](O)/C=C/[C@H]1[C@H](O)CC(=O)[C@@H]1CCCSCCC(=O)OC` [Compound 405, 4-thiaprostaglandin E1 methyl ester], the IC50 in the assay on platelet aggregation [1] amounted to 8.6 µg/mL (≈ 22.2 µM). As for `COC(=O)CCSCCC[C@H]1C(=O)C[C@@H](O)[C@@H]1/C=C/[C@@H](O)C1CCCCC1` [Compound 413], the IC50 in the assay with platelet aggregation [1] was 2.4 µg/mL (≈ 6.02 µM).

These data come from patent US4466980A, “Thiaprostaglandin E1 derivatives, process for production thereof, and pharmaceutical use thereof” (Teijin Limited, priority 1980, dated 1984).
